According to ChEMBL document CHEMBL5465560, “Selectivity Literature for EUbOPEN Chemogenomic Library” (2024):

Experiments:
[1] = molecular target: Fibroblast growth factor receptor 3 (Homo sapiens, UniProt P22607); test: (§1) Selectivity interaction (KinomeScan (DiscoverX)) EUB0000655a FGFR3; settings: at 10 µM
[2] = system: Fibroblast growth factor receptor 3 (Homo sapiens), P22607 [G697C]; test: as §1; settings: at 10 µM
[3] = molecular target: T1, Serine/threonine-protein kinase D1 (Homo sapiens) (UniProt Q15139); test: Selectivity interaction (KinomeScan (DiscoverX)) EUB0000618a PRKD1; settings: at 10 µM
T1 sequence (whole entry): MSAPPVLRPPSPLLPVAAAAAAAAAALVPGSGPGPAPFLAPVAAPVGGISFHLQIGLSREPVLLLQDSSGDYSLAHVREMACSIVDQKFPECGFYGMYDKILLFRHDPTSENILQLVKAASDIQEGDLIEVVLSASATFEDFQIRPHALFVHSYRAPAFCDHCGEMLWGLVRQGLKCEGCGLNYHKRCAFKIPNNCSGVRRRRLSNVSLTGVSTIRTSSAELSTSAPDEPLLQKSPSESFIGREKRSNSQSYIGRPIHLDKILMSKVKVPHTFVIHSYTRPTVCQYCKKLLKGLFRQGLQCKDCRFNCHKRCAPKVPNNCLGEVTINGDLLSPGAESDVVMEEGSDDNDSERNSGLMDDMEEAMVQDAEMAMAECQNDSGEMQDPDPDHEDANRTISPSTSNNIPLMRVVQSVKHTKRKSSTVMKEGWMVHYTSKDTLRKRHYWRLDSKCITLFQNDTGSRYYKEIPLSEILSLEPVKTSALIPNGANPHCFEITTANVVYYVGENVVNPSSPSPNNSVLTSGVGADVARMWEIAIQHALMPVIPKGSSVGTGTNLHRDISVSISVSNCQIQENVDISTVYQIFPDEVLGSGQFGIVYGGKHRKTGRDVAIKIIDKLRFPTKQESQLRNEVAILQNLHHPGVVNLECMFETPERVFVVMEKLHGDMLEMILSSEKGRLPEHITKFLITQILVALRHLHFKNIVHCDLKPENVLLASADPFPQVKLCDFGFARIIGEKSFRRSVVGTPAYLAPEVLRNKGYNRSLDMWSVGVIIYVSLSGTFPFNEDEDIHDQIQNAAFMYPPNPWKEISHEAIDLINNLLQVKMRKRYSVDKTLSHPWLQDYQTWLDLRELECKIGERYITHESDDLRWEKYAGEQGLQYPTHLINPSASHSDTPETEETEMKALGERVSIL

[4] = molecular target: STE20-like serine/threonine-protein kinase (Homo sapiens, UniProt Q9H2G2); test: Selectivity interaction (KinomeScan (DiscoverX)) EUB0000607a SLK; settings: at 10 µM
[5] = molecular target: Cyclin-dependent kinase 9 (Homo sapiens, UniProt P50750); test: Selectivity interaction (KinomeScan (DiscoverX)) EUB0001619a CDK9; settings: at 1 µM
[6] = molecular target: Serine/threonine-protein kinase 38 (Homo sapiens) (UniProt Q15208); test: Selectivity interaction (KinomeScan (DiscoverX)) EUB0000595a STK38; settings: at 10 µM
[7] = molecular target: Serine/threonine-protein kinase Nek6 (Homo sapiens) (UniProt Q9HC98); settings: at 10 µM
[8] = system: Tyrosine-protein kinase ABL1 (Homo sapiens), P00519 [F317I]; settings: at 10 µM
[9] = molecular target: MAP/microtubule affinity-regulating kinase 3 (Homo sapiens) (UniProt P27448); test: Selectivity interaction (Kinase panel (Invitrogen)) EUB0000639a MARK3; settings: at 200 nM
[10] = molecular target: Serine/threonine-protein kinase 10 (Homo sapiens) (UniProt O94804); test: Selectivity interaction (ActivX KiNativ screen (kinase selectivity in THP-1 cell lysates)) EUB0000639a STK10; type: subcellular; settings: lysate, at 1 µM
[11] = molecular target: T2, Phosphatidylinositol 5-phosphate 4-kinase type-2 gamma (Homo sapiens) (UniProt Q8TBX8); test: Selectivity interaction (KinomeScan (DiscoverX)) EUB0000229b PIP4K2C; settings: at 10 µM
T2 sequence (whole entry): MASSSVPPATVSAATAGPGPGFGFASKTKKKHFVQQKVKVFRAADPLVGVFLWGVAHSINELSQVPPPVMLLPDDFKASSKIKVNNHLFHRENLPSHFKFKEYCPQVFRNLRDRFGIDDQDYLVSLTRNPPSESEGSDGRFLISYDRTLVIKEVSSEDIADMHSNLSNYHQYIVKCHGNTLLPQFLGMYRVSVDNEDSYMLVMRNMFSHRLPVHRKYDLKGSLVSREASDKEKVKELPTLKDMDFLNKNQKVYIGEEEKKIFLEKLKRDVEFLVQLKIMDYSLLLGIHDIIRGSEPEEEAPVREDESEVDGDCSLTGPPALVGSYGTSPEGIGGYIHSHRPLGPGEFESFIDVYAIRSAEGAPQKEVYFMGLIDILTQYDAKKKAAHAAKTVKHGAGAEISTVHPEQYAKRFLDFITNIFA

[12] = molecular target: Estrogen receptor (Homo sapiens, UniProt P03372); test: Selectivity interaction (Estrogen alpha receptor binding assay, human recombinant ) EUB0000877a ESR1
[13] = molecular target: Adenosine receptor A3 (Homo sapiens, UniProt P0DMS8); test: Selectivity interaction (Adenosine 3 receptor binding assay, human recombinant ) EUB0000877a ADORA3
[14] = molecular target: T3, Beta-adrenergic receptor kinase 1 (Homo sapiens) (UniProt P25098); test: Selectivity interaction (KinomeScan (DiscoverX)) EUB0000695a ADRBK1; settings: at 100 nM
T3 sequence (whole entry): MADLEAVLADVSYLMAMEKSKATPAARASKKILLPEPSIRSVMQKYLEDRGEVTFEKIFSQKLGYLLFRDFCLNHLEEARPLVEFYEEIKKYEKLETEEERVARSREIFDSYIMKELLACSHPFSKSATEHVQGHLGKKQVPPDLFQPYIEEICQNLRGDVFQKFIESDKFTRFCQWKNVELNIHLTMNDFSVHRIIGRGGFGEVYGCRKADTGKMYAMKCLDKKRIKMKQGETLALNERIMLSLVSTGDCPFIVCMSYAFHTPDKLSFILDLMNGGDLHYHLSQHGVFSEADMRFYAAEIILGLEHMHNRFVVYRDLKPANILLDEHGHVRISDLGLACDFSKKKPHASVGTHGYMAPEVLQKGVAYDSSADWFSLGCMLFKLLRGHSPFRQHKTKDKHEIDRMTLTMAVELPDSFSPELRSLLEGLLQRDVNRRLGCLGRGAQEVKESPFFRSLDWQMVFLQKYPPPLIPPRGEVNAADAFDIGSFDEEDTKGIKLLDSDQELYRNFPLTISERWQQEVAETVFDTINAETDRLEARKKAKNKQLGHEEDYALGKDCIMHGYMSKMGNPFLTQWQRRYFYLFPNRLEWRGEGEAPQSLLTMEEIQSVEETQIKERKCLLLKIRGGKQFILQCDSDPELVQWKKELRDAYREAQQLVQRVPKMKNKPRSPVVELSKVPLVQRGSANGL

[15] = molecular target: Vascular endothelial growth factor receptor 1 (Homo sapiens) (UniProt P17948); test: Selectivity interaction (KinomeScan (DiscoverX)) EUB0000695a FLT1; settings: at 100 nM

Chain of Fibroblast growth factor receptor 3 (P22607 23-806 limits assumed): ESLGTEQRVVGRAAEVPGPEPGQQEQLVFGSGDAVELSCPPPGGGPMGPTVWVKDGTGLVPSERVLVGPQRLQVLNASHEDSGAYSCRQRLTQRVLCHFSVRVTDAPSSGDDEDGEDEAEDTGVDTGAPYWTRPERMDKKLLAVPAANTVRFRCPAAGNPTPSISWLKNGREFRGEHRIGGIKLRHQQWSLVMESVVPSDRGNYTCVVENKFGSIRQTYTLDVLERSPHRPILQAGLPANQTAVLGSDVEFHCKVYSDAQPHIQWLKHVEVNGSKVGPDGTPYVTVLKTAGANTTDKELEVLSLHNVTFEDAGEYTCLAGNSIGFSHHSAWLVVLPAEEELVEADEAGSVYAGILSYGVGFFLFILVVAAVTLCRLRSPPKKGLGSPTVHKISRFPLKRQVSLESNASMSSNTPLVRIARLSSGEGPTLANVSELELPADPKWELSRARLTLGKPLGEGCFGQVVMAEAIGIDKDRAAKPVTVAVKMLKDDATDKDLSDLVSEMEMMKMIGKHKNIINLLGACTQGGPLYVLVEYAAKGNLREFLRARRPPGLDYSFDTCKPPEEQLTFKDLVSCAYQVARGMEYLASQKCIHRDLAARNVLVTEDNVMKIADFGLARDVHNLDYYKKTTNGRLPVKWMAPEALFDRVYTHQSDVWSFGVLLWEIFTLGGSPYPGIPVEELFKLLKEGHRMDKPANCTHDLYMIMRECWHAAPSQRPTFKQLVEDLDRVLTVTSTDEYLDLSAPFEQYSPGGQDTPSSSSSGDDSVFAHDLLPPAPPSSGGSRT
Chain of Tyrosine-protein kinase ABL1 (Homo sapiens), P00519 [F317I] (P00519 whole entry F317I): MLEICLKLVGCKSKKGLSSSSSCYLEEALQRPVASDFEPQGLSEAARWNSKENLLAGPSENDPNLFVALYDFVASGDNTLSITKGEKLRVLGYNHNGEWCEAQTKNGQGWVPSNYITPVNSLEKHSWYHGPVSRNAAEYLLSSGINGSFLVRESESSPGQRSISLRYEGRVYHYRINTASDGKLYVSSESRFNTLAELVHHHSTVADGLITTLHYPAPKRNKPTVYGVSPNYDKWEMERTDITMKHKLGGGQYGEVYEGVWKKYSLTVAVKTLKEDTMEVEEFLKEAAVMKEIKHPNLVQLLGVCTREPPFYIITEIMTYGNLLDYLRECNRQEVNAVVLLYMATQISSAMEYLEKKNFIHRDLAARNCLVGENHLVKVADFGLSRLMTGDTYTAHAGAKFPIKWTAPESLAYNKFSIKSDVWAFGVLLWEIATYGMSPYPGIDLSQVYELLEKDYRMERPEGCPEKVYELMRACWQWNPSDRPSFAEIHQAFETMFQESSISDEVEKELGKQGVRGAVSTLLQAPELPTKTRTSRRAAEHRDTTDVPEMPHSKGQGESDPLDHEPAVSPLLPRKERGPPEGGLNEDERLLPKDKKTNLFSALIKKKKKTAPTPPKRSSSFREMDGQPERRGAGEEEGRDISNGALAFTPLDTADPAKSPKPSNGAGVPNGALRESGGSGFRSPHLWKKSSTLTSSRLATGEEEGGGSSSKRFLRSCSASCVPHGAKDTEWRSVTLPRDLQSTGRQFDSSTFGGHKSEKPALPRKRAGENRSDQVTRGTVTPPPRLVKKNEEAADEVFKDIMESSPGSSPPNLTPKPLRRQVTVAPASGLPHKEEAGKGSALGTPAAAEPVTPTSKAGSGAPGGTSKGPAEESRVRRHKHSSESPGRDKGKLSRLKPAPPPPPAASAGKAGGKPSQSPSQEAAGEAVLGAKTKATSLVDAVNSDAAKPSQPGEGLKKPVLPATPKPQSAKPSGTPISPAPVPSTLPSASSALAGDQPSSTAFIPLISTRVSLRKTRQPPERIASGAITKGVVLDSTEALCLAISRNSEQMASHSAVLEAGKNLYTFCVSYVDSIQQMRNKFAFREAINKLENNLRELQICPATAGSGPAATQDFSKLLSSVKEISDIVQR
Chain of STE20-like serine/threonine-protein kinase (Q9H2G2 whole entry, looked up): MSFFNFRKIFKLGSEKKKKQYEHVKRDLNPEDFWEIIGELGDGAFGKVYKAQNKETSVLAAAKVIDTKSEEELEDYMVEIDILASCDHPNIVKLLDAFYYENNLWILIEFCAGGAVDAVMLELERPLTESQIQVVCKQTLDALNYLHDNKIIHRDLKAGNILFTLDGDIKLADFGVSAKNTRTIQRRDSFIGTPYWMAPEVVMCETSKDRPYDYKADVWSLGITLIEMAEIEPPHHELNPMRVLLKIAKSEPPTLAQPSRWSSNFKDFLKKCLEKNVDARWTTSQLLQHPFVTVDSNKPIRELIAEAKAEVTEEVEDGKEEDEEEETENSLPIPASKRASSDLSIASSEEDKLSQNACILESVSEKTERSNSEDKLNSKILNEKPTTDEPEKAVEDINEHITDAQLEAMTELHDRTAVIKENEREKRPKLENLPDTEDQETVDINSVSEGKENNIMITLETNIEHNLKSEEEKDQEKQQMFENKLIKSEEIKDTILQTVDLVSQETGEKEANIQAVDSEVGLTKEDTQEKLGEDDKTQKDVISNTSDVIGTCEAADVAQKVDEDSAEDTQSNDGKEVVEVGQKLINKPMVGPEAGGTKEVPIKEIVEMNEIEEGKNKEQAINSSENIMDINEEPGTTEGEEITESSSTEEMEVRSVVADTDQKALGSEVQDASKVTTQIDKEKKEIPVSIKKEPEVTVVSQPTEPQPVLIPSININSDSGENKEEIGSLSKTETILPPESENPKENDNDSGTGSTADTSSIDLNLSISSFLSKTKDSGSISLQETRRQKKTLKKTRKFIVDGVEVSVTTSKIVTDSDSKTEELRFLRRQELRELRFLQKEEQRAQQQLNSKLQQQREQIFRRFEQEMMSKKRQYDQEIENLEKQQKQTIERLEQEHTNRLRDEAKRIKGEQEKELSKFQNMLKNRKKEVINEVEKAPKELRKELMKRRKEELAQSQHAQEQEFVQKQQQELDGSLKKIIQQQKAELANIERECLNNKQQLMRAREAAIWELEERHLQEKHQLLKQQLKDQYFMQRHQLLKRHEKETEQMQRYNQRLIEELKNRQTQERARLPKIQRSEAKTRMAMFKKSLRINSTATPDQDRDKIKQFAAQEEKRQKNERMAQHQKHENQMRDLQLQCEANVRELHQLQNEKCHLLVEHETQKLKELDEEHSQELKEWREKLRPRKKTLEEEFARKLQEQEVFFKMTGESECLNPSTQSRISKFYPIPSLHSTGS
Chain of Serine/threonine-protein kinase 38 (Homo sapiens) (Q15208 2-465 limits assumed): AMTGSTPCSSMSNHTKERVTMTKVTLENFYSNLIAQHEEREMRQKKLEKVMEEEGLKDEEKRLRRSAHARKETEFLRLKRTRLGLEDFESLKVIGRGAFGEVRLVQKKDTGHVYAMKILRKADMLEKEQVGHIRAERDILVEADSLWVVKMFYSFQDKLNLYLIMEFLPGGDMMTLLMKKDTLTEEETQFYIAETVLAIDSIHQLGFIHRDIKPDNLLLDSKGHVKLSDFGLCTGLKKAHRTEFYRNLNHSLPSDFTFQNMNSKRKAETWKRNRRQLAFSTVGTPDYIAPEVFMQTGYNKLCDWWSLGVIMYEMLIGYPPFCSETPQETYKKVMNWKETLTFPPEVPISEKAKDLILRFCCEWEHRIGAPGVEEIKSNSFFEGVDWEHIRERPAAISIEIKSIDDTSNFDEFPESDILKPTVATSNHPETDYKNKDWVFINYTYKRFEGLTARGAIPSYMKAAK
Chain of Estrogen receptor (P03372 whole entry): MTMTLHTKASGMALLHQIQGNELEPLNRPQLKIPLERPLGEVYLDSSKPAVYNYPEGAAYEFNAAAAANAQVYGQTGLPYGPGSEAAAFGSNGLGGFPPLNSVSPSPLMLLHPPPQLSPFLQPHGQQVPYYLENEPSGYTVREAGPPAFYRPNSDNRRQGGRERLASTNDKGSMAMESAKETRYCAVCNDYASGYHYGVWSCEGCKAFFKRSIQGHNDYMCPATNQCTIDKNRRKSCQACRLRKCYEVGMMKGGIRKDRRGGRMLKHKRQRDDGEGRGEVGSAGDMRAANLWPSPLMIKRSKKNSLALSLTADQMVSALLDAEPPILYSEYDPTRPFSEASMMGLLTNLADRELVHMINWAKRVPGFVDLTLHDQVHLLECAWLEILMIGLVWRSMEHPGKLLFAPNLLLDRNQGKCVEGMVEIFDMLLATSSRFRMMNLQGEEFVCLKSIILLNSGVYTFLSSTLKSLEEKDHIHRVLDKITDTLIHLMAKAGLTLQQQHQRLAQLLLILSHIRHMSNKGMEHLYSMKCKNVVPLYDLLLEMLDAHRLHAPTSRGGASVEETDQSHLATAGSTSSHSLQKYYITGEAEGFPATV
Chain of Cyclin-dependent kinase 9 (P50750 whole entry): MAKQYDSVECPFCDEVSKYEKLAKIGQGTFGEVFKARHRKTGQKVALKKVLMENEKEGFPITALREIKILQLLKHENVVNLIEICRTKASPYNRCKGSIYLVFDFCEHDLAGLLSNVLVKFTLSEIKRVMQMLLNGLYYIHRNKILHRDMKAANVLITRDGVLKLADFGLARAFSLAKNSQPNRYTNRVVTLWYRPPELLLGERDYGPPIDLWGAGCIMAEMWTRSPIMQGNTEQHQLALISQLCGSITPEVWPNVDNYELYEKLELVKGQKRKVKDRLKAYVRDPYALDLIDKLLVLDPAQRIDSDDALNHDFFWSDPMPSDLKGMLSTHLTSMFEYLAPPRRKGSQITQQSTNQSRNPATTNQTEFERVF
Chain of Serine/threonine-protein kinase Nek6 (Homo sapiens) (Q9HC98 whole entry): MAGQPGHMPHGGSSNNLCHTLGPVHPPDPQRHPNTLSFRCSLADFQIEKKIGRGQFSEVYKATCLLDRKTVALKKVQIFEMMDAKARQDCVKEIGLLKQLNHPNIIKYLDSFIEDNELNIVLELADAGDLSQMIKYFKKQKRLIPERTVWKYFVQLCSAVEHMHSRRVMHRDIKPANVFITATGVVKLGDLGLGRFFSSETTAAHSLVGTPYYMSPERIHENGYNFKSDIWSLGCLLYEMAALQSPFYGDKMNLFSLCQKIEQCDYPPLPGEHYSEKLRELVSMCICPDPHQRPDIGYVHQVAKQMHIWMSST

CN(C)CCOc1ccc(-c2nc(-c3ccncc3)c(-c3ccc4c(c3)CC/C4=N\O)[nH]2)cc1
% of control [1]: 100% | % of control [2]: 100%

O[C@H]1CC[C@H](Nc2ncc3nc(Nc4c(F)cc(F)cc4F)n([C@H]4CCOC4)c3n2)CC1
% of control [3]: 46%

CNC(=O)Nc1ccc(-c2nc(N3CC4CCC(C3)O4)c3cnn(C4CCC5(CC4)OCCO5)c3n2)cc1
% of control [4]: 100%

N#Cc1cccc(-c2c[nH]c3ncnc(N4CCOCC4)c23)c1
% of control [5]: 97%

COCC(=O)NC/C=C/c1ccc2ncnc(Nc3ccc(Oc4ccc(C)nc4)c(C)c3)c2c1 [CP-724714]
% of control [6]: 73% | % of control [7]: 100%

Cc1cc([C@@H](C)Nc2ccccc2C(=O)O)c2nc(N3CCOCC3)cc(=O)n2c1 [AZD-6482]
% of control [8]: 94%

CC[C@@H]1[C@H](F)C(=O)N[C@@H]1COc1nccc2cc(C(N)=O)c(OC)cc12 [ZIMLOVISERTIB]
% of inhibition [9]: 12.4% | % of inhibition [10]: -15.7%

COc1cc(N(C)c2ccnc3ccc(C(F)(F)F)cc23)cc(OC)c1OC
% binding [11]: 38%

CCC(=O)N1CC[C@H](Nc2ncnc3c2CN(c2cnc(OC)c(C(F)(F)F)c2)CC3)C1 [LENIOLISIB]
IC50 [12]: > 30 µM | IC50 [13]: > 30 µM

Cc1cc(F)c(C(=O)Nc2cccc(-c3nncn3C(C)C)n2)cc1-n1cnc(C2CC2)c1
% of control [14]: 70% | % of control [15]: 100%
